According to ChEMBL document CHEMBL4765419, “Design, synthesis and bioactivity evaluation of novel arylalkene-amide derivatives as dual-target antifungal inhibitors” (Eur J Med Chem, 2020):
Calls of active or inactive are those of the source. The calls are words filed in the database; no cut-off is given here.

Key:
Pichia kudriavzevii = experiment: Antifungal activity against Candida krusei assessed as inhibition of microbial growth by two fold broth microdilution method; type: functional
Aspergillus fumigatus = experiment: Antifungal activity against Aspergillus fumigatus assessed as inhibition of microbial growth by two fold broth microdilution method; type: functional
Candida tropicalis = experiment: Antifungal activity against Candida tropicalis assessed as inhibition of microbial growth by two fold broth microdilution method; type: functional
Candida albicans [1] = experiment: Antifungal activity against Candida albicans assessed as inhibition of microbial growth by two fold broth microdilution method; type: functional
Nakaseomyces glabratus = experiment: Antifungal activity against Candida glabrata assessed as inhibition of microbial growth by two fold broth microdilution method; type: functional
[2] = Stability in human plasma incubated for 120 mins; type: ADME, cell-free; conditions: read-out: Stabilty
Candida albicans [3] = experiment: Antifungal activity against fluconazole-resistant Candida albicans 632 assessed as inhibition of microbial growth by two fold broth microdilution method; type: functional
Candida albicans [4] = experiment: Antifungal activity against Candida albicans ATCC SC5314 assessed as irregular cell structure at 4 ug/ml incubated for 72 hrs by TEM analysis; type: functional, organism-based; conditions: dose 4.0 µg/ml
Candida albicans [5] = experiment: Antifungal activity against fluconazole-resistant Candida albicans 904 assessed as inhibition of microbial growth by two fold broth microdilution method; type: functional
Candida albicans [6] = experiment: In vivo antifungal activity against Candida albicans infected in mouse assessed as reduction in tissue infection injected via abdomen for 7 days by H and E staining based histological analysis; type: functional, organism-based; conditions: time 7.0 day
Candida albicans [7] = experiment: Antifungal activity against Candida albicans ATCC SC5314 assessed as decrease in fungal cell density by polarizing microscopy; type: functional, organism-based
Candida albicans [8] = experiment: In vivo antifungal activity against Candida albicans infected in mouse assessed as uniform cell distribution injected via abdomen for 7 days by H and E staining based histological analysis; type: functional, organism-based; conditions: time 7.0 day
[9] = Toxicity in mouse infected with Candida albicans assessed as change in spleen morphology administered via abdomen for 7 days by H and E staining based histological analysis; conditions: in vivo, ip, 168 h, time 7 day
Candida albicans [10] = experiment: Antifungal activity against Candida albicans ATCC SC5314 assessed as vesicles formation at 4 ug/ml incubated for 72 hrs by TEM analysis; type: functional, organism-based; conditions: dose 4.0 µg/ml
Candida albicans [11] = experiment: In vivo antifungal activity against Candida albicans infected in mouse assessed as disappearance of infected positions injected via abdomen for 7 days by H and E staining based histological analysis; type: functional, organism-based; conditions: time 7.0 day
Candida albicans [12] = experiment: Antifungal activity against Candida albicans ATCC SC5314 assessed as loss of cell permeability at 4 ug/ml incubated for 72 hrs by TEM analysis; type: functional, organism-based; conditions: dose 4.0 µg/ml
[13] = Renal toxicity in mouse infected with Candida albicans assessed as effect on blood urea nitrogen level administered via abdomen for 7 days (reference value: 6.7 +/-0.3 mmol/L); conditions: in vivo, ip, 168 h, time 7 day
Candida albicans SC5314 [14] = experiment: Inhibition of SE/CYP51 in Candida albicans ATCC SC5314 assessed as unidentified sterol level at 4 ug/ml incubated for 16 hrs by LC/MS analysis (reference value: 7.03 %); parameters: scale not given: the % may be the effect or the level left; conditions: dose 4.0 µg/ml
[15] = Toxicity in mouse infected with Candida albicans assessed as change in kidney morphology administered via abdomen for 7 days by H and E staining based histological analysis; conditions: in vivo, ip, 168 h, time 7 day
[16] = Stability in human plasma incubated for 60 mins; type: ADME, cell-free; conditions: read-out: Stabilty
Candida albicans SC5314 [17] = experiment: Inhibition of SE/CYP51 in Candida albicans ATCC SC5314 assessed as eburicol level at 4 ug/ml incubated for 16 hrs by LC/MS analysis (reference value: 4.67 %); parameters: scale not given: the % may be the effect or the level left; conditions: dose 4.0 µg/ml
Candida albicans SC5314 [18] = experiment: Inhibition of SE/CYP51 in Candida albicans ATCC SC5314 assessed as ergosterol level at 4 ug/ml incubated for 16 hrs by LC/MS analysis (reference value: 79.43 %); parameters: scale not given: the % may be the effect or the level left; conditions: dose 4.0 µg/ml
[19] = Toxicity in mouse infected with Candida albicans assessed as change in body weight administered via abdomen for 7 days; conditions: in vivo, ip, 168 h, time 7 day
Candida albicans SC5314 [20] = experiment: Inhibition of SE/CYP51 in Candida albicans ATCC SC5314 assessed as lanosterol level at 4 ug/ml incubated for 16 hrs by LC/MS analysis (reference value: 6.62 %); parameters: scale not given: the % may be the effect or the level left; conditions: dose 4.0 µg/ml
Candida albicans [21] = experiment: In vivo antifungal activity against Candida albicans infected in mouse assessed as disappearance of cell nuclear aggregation injected via abdomen for 7 days by H and E staining based histological analysis; type: functional, organism-based; conditions: time 7.0 day
Candida albicans [22] = experiment: Antifungal activity against fluconazole-resistant Candida albicans 901 assessed as inhibition of microbial growth by two fold broth microdilution method; type: functional
Candida albicans [23] = experiment: Antifungal activity against fluconazole-resistant Candida albicans 17# assessed as inhibition of microbial growth by two fold broth microdilution method; type: functional
Candida albicans [24] = experiment: Antifungal activity against Candida albicans ATCC SC5314 assessed as nuclear membrane cleavage at 4 ug/ml incubated for 72 hrs by TEM analysis; type: functional, organism-based; conditions: dose 4.0 µg/ml
[25] = Hepatotoxicity in mouse infected with Candida albicans assessed as aspartate aminotransferase level in plasma administered via abdomen for 7 days (reference value: 109.4 +/-4.8 IU/L); type: toxicity; conditions: ip, 168 h, time 7 day
Candida albicans [26] = experiment: Antifungal activity against Candida albicans ATCC SC5314 assessed as cell lysis at 4 ug/ml […] by TEM analysis; type: functional, organism-based; conditions: dose 4.0 µg/ml
Candida albicans [27] = experiment: Antifungal activity against Candida albicans ATCC SC5314 assessed as disappearance of fungal cell boundaries at 4 ug/ml incubated for 72 hrs by TEM analysis; type: functional, organism-based; conditions: dose 4.0 µg/ml
Candida albicans [28] = experiment: Antifungal activity against Candida albicans ATCC SC5314 assessed as edema cavitation at 4 ug/ml incubated for 72 hrs by TEM analysis; type: functional, organism-based; conditions: dose 4.0 µg/ml
Candida albicans [29] = experiment: Antifungal activity against fluconazole-resistant Candida albicans CaR assessed as inhibition of microbial growth by two fold broth microdilution method; type: functional
[30] = Toxicity in mouse infected with Candida albicans assessed as change in heart morphology administered via abdomen for 7 days by H and E staining based histological analysis; conditions: in vivo, ip, 168 h, time 7 day
Candida albicans [31] = experiment: Antifungal activity against Candida albicans ATCC SC5314 assessed as leakage of endogenous substances at 4 ug/ml incubated for 72 hrs by TEM analysis; type: functional, organism-based; conditions: dose 4.0 µg/ml
[32] = Hepatotoxicity in mouse infected with Candida albicans assessed as effect on alanine aminotransferase level in plasma administered via abdomen for 7 days (reference value: 102 +/-9.2 IU/L); type: toxicity; conditions: ip, 168 h, time 7 day
Candida albicans SC5314 [33] = experiment: Inhibition of SE/CYP51 in Candida albicans ATCC SC5314 assessed as squalene level at 4 ug/ml incubated for 16 hrs by LC/MS analysis (reference value: 2.25 %); parameters: scale not given: the % may be the effect or the level left; conditions: dose 4.0 µg/ml
[34] = Toxicity in mouse infected with Candida albicans assessed as change in lung morphology administered via abdomen for 7 days by H and E staining based histological analysis; conditions: in vivo, ip, 168 h, time 7 day
[35] = Toxicity in mouse infected with Candida albicans assessed as change in liver morphology administered via abdomen for 7 days by H and E staining based histological analysis; conditions: in vivo, ip, 168 h, time 7 day

O=C(NCc1cccnc1)C(=O)N/N=C/c1cccc2ccccc12
MIC (Pichia kudriavzevii): 0.25 µg/mL
MIC (Aspergillus fumigatus): > 16 µg/mL
MIC (Candida tropicalis): 0.5 µg/mL
MIC (Candida albicans [1]): 0.5 µg/mL
MIC (Nakaseomyces glabratus): 0.5 µg/mL

O=C(NCc1ccncc1)C(=O)N/N=C/c1ccc2ccccc2c1
MIC (Pichia kudriavzevii): 0.25 µg/mL
MIC (Aspergillus fumigatus): > 16 µg/mL
MIC (Candida tropicalis): 0.5 µg/mL
MIC (Candida albicans [1]): 0.25 µg/mL
MIC (Nakaseomyces glabratus): 0.5 µg/mL

O=C(NCc1ccncc1)C(=O)N/N=C/c1ccc2c(c1)OCCO2
MIC (Pichia kudriavzevii): 0.5 µg/mL
MIC (Aspergillus fumigatus): 8 µg/mL
MIC (Candida tropicalis): 1 µg/mL
MIC (Candida albicans [1]): 0.5 µg/mL
MIC (Nakaseomyces glabratus): 1 µg/mL

O=C(NCc1ccncc1)C(=O)N/N=C/c1cccc2ccccc12
remaining at 2 h [2]: 86.5%
MIC (Candida albicans [3]): 8 µg/mL
Activity (Candida albicans [4]): Active
MIC (Candida albicans [5]): 8 µg/mL
Activity (Candida albicans [6]): Active
MIC (Pichia kudriavzevii): 0.5 µg/mL
MIC (Aspergillus fumigatus): 2 µg/mL
Activity (Candida albicans [7]): Active
Activity (Candida albicans [8]): Active
Activity [9]: Non-Toxic
MIC (Candida tropicalis): 0.125 µg/mL
Activity (Candida albicans [10]): Active
Activity (Candida albicans [11]): Active
Activity (Candida albicans [12]): Active
Activity [13]: 7.1 mmol/L
Activity (Candida albicans SC5314 [14]): 4.71%
Activity [15]: Non-Toxic
remaining at 1 h [16]: 92.3%
Activity (Candida albicans SC5314 [17]): 32.8%
Activity (Candida albicans SC5314 [18]): 8.27%
MIC (Candida albicans [1]): 0.125 µg/mL
Activity [19]: Non-Toxic
Activity (Candida albicans SC5314 [20]): 11.3%
MIC (Nakaseomyces glabratus): 0.25 µg/mL
Activity (Candida albicans [21]): Active
MIC (Candida albicans [22]): 4 µg/mL
MIC (Candida albicans [23]): 4 µg/mL
Activity (Candida albicans [24]): Active
Activity [25]: 112.7 IU/L
Activity (Candida albicans [26]): Active
Activity (Candida albicans [27]): Active
Activity (Candida albicans [28]): Active
MIC (Candida albicans [29]): 4 µg/mL
Activity [30]: Non-Toxic
Activity (Candida albicans [31]): Active
Activity [32]: 117 IU/L
Activity (Candida albicans SC5314 [33]): 42.9%
Activity [34]: Non-Toxic
Activity [35]: Non-Toxic

O=C(/C=C/c1ccc2c(c1)OCCO2)NCC(=O)NCc1ccncc1
MIC (Pichia kudriavzevii): 0.5 µg/mL
MIC (Aspergillus fumigatus): > 16 µg/mL
MIC (Candida tropicalis): 1 µg/mL
MIC (Candida albicans [1]): 0.5 µg/mL
MIC (Nakaseomyces glabratus): 0.5 µg/mL

CN(CC(=O)NCc1cccnc1)C(=O)/C=C/c1ccc2c(c1)OCCO2
MIC (Pichia kudriavzevii): 4 µg/mL
MIC (Aspergillus fumigatus): > 16 µg/mL
MIC (Candida tropicalis): 0.5 µg/mL
MIC (Candida albicans [1]): 2 µg/mL
MIC (Nakaseomyces glabratus): 0.5 µg/mL

O=C(/C=C/c1ccc2c(c1)OCCO2)NC(Cn1ccnc1)C(=O)NCc1ccccc1 (centres undefined)
MIC (Pichia kudriavzevii): 2 µg/mL
MIC (Aspergillus fumigatus): > 16 µg/mL
MIC (Candida tropicalis): 0.5 µg/mL
MIC (Candida albicans [1]): 0.5 µg/mL
MIC (Nakaseomyces glabratus): 1 µg/mL

O=C(/C=C/c1ccc2c(c1)OCCO2)NCC(=O)NCc1cccnc1
MIC (Pichia kudriavzevii): 4 µg/mL
MIC (Aspergillus fumigatus): > 16 µg/mL
MIC (Candida tropicalis): 2 µg/mL
MIC (Candida albicans [1]): 2 µg/mL
MIC (Nakaseomyces glabratus): 4 µg/mL

O=C(/C=C/c1cccc2ccccc12)NCC(=O)NCc1cccnc1
MIC (Pichia kudriavzevii): 1 µg/mL
MIC (Aspergillus fumigatus): 8 µg/mL
MIC (Candida tropicalis): 0.5 µg/mL
MIC (Candida albicans [1]): 0.5 µg/mL
MIC (Nakaseomyces glabratus): 1 µg/mL

O=C(/C=C/c1ccc2ccccc2c1)NC(Cn1ccnc1)C(=O)NCc1ccccc1 (centres undefined)
MIC (Pichia kudriavzevii): 4 µg/mL
MIC (Aspergillus fumigatus): 8 µg/mL
MIC (Candida tropicalis): 0.5 µg/mL
MIC (Candida albicans [1]): 2 µg/mL
MIC (Nakaseomyces glabratus): 0.5 µg/mL

O=C(/C=C/c1ccc2ccccc2c1)NC(Cn1ccnc1)C(=O)Nc1ccccc1 (centres undefined)
MIC (Pichia kudriavzevii): 0.5 µg/mL
MIC (Aspergillus fumigatus): 8 µg/mL
MIC (Candida tropicalis): 0.5 µg/mL
MIC (Candida albicans [1]): 0.5 µg/mL
MIC (Nakaseomyces glabratus): 0.25 µg/mL

CN(CC(=O)NCc1ccncc1)C(=O)/C=C/c1ccc2ccccc2c1
MIC (Candida albicans [3]): 8 µg/mL
MIC (Candida albicans [5]): > 16 µg/mL
MIC (Pichia kudriavzevii): 0.25 µg/mL
MIC (Aspergillus fumigatus): 8 µg/mL
MIC (Candida tropicalis): 0.25 µg/mL
MIC (Candida albicans [1]): 0.25 µg/mL
MIC (Nakaseomyces glabratus): 0.125 µg/mL
MIC (Candida albicans [22]): > 16 µg/mL
MIC (Candida albicans [23]): > 16 µg/mL
MIC (Candida albicans [29]): 8 µg/mL

CN(CC(=O)NCc1cccnc1)C(=O)/C=C/c1cccc2ccccc12
MIC (Pichia kudriavzevii): 0.25 µg/mL
MIC (Aspergillus fumigatus): > 16 µg/mL
MIC (Candida tropicalis): 0.5 µg/mL
MIC (Candida albicans [1]): 0.5 µg/mL
MIC (Nakaseomyces glabratus): 0.5 µg/mL
